Data taken from US20210308034A1, “PREBIOTIC COMPOSITIONS AND METHODS FOR MAINTAINING A HEALTHY SKIN MICROBIOTA” (KIMBERLY-CLARK WORLDWIDE, INC., priority 2018, published 2021).

Columns and labels:
Type in all cases: cell-based
[1] = system: Corynebacterium minutissimum (ATCC 23348); experiment: Carbohydrate Screening Test Method (Biolog phenotype microarray), Bacteria Code A; settings: Pathogenic; carbon microarray plate, OD 600 nm, 36 hr, 33° C.; positive = more than 0.05 OD units above zero; blank cell = not utilized
Excerpt: (§1) After creating desired ratios of various commensal skin bacteria in a healthy skin microbiome, 188 different carbohydrate sources were screened as the next step in determining potential prospects for skin microbiota balancing agents. The screening process was set up to determine which carbohydrate sources promoted commensal and/or pathogenic bacteria as well as to obtain individual and combinations of carbohydrate sources that could serve as microbiota balancing agents that can support or maintain the healthy proportions of commensal skin bacteria of Corynebacterium, Staphylococcus, and Micrococcus. The screening was conducted utilizing Biolog phenotype microarray plates (Hayward, Calif.). Table 1 provides a coded list of the commensal and pathogenic skin bacteria that the carbohydrates were screened against.
(§2) Table 2 provides the results of screening various carbohydrate sources against the commensal and pathogenic bacteria codes listed in Table 1. The Bacteria Codes B, D, E, I, and J are commensal bacteria and are shaded in Table 2 for references purposes. The bacteria codes were each placed in a carbon microarray plate and screened through the Carbohydrate Screening Test Method, as described in the Test Methods section herein. If a particular bacteria code utilized a specific carbohydrate source as described in the Carbohydrate Screening Test Method, then the corresponding cell in Table 2 was marked with a Y (short for “Yes”). […] Many of the carbohydrate sources were utilized by both commensal and pathogenic bacteria, and as such, would not provide an advantage for selective growth of the commensal bacteria. However, some of the carbohydrate sources were only used by commensal bacteria and were identified for further testing as described herein.
(§3) The study employed 10 representative skin bacteria; Staphylococcus epidermidis ATCC 14990, Staphylococcus epidermidis M23864:W2, Staphylococcus aureus ATCC 6538, Staphylococcus aureus ATCC 25904 (Newman), Pseudomonas aeruginosa ATCC 9027, Micrococcus luteus ATCC […], Micrococcus luteus SK58, Klebsiella pneumoniae ATCC BAA-2146, Corynebacterium amycolatum SK46, and Corynebacterium minutissimum ATCC 23348. Cultures were started from freezer bead stocks by placing a single bead into 20 mL of tryptic soy broth (TSB) for all organisms except C. amycolatum SK46 and C. minutissimum ATCC 23348, which were placed into brain heart infusion (BHI) broth. Cultures were grown for about 24 hr at 37° C. except M. luteus ATCC 49732 and M. luteus SK58, which were grown at 30° C. A passage of the culture was made using a sterile swab and streaked onto two M9*2 agar plates to prepare the incubated culture for the phenotype microarray pate according to Table 4. Plates were incubated for about 24 hr at 37° C. except for M. luteus ATCC 49732 and M. luteus SK58, which were incubated at 30° C. for 24 hr.
(§4) All cultures were harvested and washed before inoculation into the carbon microarray plate (BiOLOG, Hayward Calif.), with Biolog Plates PM1 and PM2 each having a source definition of Carbon. The bacteria on the M9*2 agar was suspended via agitation with an inoculating loop in 1 mL of M9*1 media for collection in a 1.7 mL micro centrifuge tube, as noted in Table 4. The bacteria was suspended again in M9*1 media, agitated, and collected into the same 1.7 mL microcentrifuge tube used in the previous step. The tube was centrifuged for 5 minutes at 4,000×G, supernatant decanted, the pellet was resuspended in 1 mL of M9*1 media, and vortex. This washing process was repeated for a total of 4 times.
(§5) A tenfold dilution in M9*1 media was performed using 1 mL of the washed bacterial culture. Of the tenfold dilution 200 μL was placed in an untreated 96-well plate (Falcon, Pasadena Tx.) for an initial optical density (OD) reading at a wavelength of 600 nm. The OD was used to correlate to colony forming units (CFU) per milliliter by using linear regression lines for each organism. […]

[2] = system: Staphylococcus aureus (ATCC 25904) (Newman); experiment: Carbohydrate Screening Test Method (Biolog phenotype microarray), Bacteria Code H; settings: Pathogenic; carbon microarray plate, OD 600 nm, 36 hr, 33° C.; positive = more than 0.05 OD units above zero; blank cell = not utilized
Excerpt: as §1, §2, §3, §4, §5

[3] = system: Corynebacterium jeikum (ATCC 33033); experiment: Carbohydrate Screening Test Method (Biolog phenotype microarray), Bacteria Code B; settings: Commensal; carbon microarray plate, OD 600 nm, 36 hr, 33° C.; positive = more than 0.05 OD units above zero; blank cell = not utilized
In short: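 Strain from M9*2 agar was suspended in M9*1 medium, washed and inoculated into Biolog PM1/PM2 carbon plates. Carbohydrate use was scored yes/no, and growth rate and maximum yield were derived with GrowthRates 2.1, with max yields used for commensal ratios.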

[4] = system: Staphylococcus epidermidis (M23864:W2); experiment: Carbohydrate Screening Test Method (Biolog phenotype microarray), Bacteria Code J; settings: Commensal; carbon microarray plate, OD 600 nm, 36 hr, 33° C.; positive = more than 0.05 OD units above zero; blank cell = not utilized
[5] = system: Micrococcus luteus (SK58); experiment: Carbohydrate Screening Test Method (Biolog phenotype microarray), Bacteria Code E; settings: Commensal; carbon microarray plate, OD 600 nm, 36 hr, 33° C.; positive = more than 0.05 OD units above zero; blank cell = not utilized
In short: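 Each commensal strain grown in Biolog carbon phenotype microarray plates with single carbohydrate sources. Growth curves fitted with GrowthRates 2.1 to give growth rate and maximum yield. Max yields used to calculate predicted co-culture ratios between Corynebacterium, Staphylococcus and Micrococcus, compared with desired ratios of 1.3, 1.4 and 1.1.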

[6] = system: Staphylococcus aureus (ATCC 6538); experiment: Carbohydrate Screening Test Method (Biolog phenotype microarray), Bacteria Code G; settings: Pathogenic; carbon microarray plate, OD 600 nm, 36 hr, 33° C.; positive = more than 0.05 OD units above zero; blank cell = not utilized
Excerpt: as §1, §2, §3, §4, §5

[7] = system: Klebsiella pneumoniae (ATCC BAA-2146); settings: Pathogenic; carbon microarray plate, OD 600 nm, 36 hr, 33° C.; positive = more than 0.05 OD units above zero; blank cell = not utilized
[8] = system: Staphylococcus epidermidis (ATCC 14990); experiment: Carbohydrate Screening Test Method (Biolog phenotype microarray), Bacteria Code I; settings: Commensal; carbon microarray plate, OD 600 nm, 36 hr, 33° C.; positive = more than 0.05 OD units above zero; blank cell = not utilized
Excerpt: as §1, §2, §3, §4, §5

[9] = system: Pseudomonas aeruginosa (ATCC 9027); settings: Pathogenic; carbon microarray plate, OD 600 nm, 36 hr, 33° C.; positive = more than 0.05 OD units above zero; blank cell = not utilized
In short: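 Carbon-source utilisation screen on Biolog PM1/PM2 plates: strain grown in TSB then on M9*2 agar, each ~24 h at 37 °C, washed four times in M9*1 and diluted tenfold. OD600 correlated to CFU/mL; each carbohydrate scored Yes when utilised.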

[10] = system: Micrococcus luteus (ATCC 49732); experiment: Carbohydrate Screening Test Method (Biolog phenotype microarray), Bacteria Code D; settings: Commensal; carbon microarray plate, OD 600 nm, 36 hr, 33° C.; positive = more than 0.05 OD units above zero; blank cell = not utilized
Excerpt: as §1, §2, §3, §4, §5

CC(N)=O [Acetamide]
Y: Carbohydrate Screening Results, Bacteria Code A [1]

O=C(CO)[C@@H](O)[C@H](O)[C@H](O)COP(=O)(O)O [D-Fructose-6-Phosphate]
Y: Carbohydrate Screening Results, Bacteria Code H [2] | Carbohydrate Screening Results, Bacteria Code B [3] | Carbohydrate Screening Results, Bacteria Code J [4] | Carbohydrate Screening Results, Bacteria Code E [5] | Carbohydrate Screening Results, Bacteria Code G [6]

O=C(CO)[C@@H](O)[C@H](O)[C@H](O)CO [D-Fructose]
Y: Carbohydrate Screening Results, Bacteria Code C [7] | Carbohydrate Screening Results, Bacteria Code H [2] | Carbohydrate Screening Results, Bacteria Code B [3] | Carbohydrate Screening Results, Bacteria Code J [4] | Carbohydrate Screening Results, Bacteria Code A [1] | Carbohydrate Screening Results, Bacteria Code E [5] | Carbohydrate Screening Results, Bacteria Code G [6]

O=C[C@H](O)[C@@H](O)[C@H](O)[C@H](O)COP(=O)(O)O [D-Glucose-6-Phosphate]
Y: Carbohydrate Screening Results, Bacteria Code C [7] | Carbohydrate Screening Results, Bacteria Code I [8] | Carbohydrate Screening Results, Bacteria Code J [4] | Carbohydrate Screening Results, Bacteria Code F [9] | Carbohydrate Screening Results, Bacteria Code E [5] | Carbohydrate Screening Results, Bacteria Code G [6]

OC[C@@H](O)[C@@H](O)[C@H](O)[C@H](O)CO [D-Mannitol]
Y: Carbohydrate Screening Results, Bacteria Code C [7] | Carbohydrate Screening Results, Bacteria Code H [2] | Carbohydrate Screening Results, Bacteria Code B [3] | Carbohydrate Screening Results, Bacteria Code F [9] | Carbohydrate Screening Results, Bacteria Code E [5] | Carbohydrate Screening Results, Bacteria Code G [6]

O=C[C@@H](O)[C@@H](O)[C@H](O)[C@H](O)CO [D-Mannose]
Y: Carbohydrate Screening Results, Bacteria Code C [7] | Carbohydrate Screening Results, Bacteria Code H [2] | Carbohydrate Screening Results, Bacteria Code B [3] | Carbohydrate Screening Results, Bacteria Code A [1] | Carbohydrate Screening Results, Bacteria Code E [5] | Carbohydrate Screening Results, Bacteria Code G [6]

O=C(O)[C@@H](O)[C@@H](O)[C@H](O)[C@@H](O)C(=O)O [D-Saccharic Acid]
Y: Carbohydrate Screening Results, Bacteria Code A [1]

OC[C@H]1O[C@H](O[C@H]2O[C@H](CO)[C@@H](O)[C@H](O)[C@H]2O)[C@H](O)[C@@H](O)[C@@H]1O [D-Trehalose]
Y: Carbohydrate Screening Results, Bacteria Code C [7] | Carbohydrate Screening Results, Bacteria Code H [2] | Carbohydrate Screening Results, Bacteria Code B [3] | Carbohydrate Screening Results, Bacteria Code D [10] | Carbohydrate Screening Results, Bacteria Code F [9] | Carbohydrate Screening Results, Bacteria Code E [5] | Carbohydrate Screening Results, Bacteria Code G [6]

OC[C@H]1O[C@@H](n2cnc3c(O)ncnc32)[C@H](O)[C@@H]1O [Inosine]
Y: Carbohydrate Screening Results, Bacteria Code C [7] | Carbohydrate Screening Results, Bacteria Code H [2] | Carbohydrate Screening Results, Bacteria Code B [3] | Carbohydrate Screening Results, Bacteria Code E [5]

C[C@H](O)C(=O)O [L-Lactic Acid]
Y: Carbohydrate Screening Results, Bacteria Code I [8] | Carbohydrate Screening Results, Bacteria Code B [3] | Carbohydrate Screening Results, Bacteria Code A [1] | Carbohydrate Screening Results, Bacteria Code E [5]

CSCC[C@H](N)C(=O)O [L-Methionine]
Y: Carbohydrate Screening Results, Bacteria Code A [1]

OC[C@H]1O[C@H](O[C@H]2[C@H](O)[C@@H](O)[C@H](O)O[C@@H]2CO)[C@H](O)[C@@H](O)[C@@H]1O [Maltose]
Y: Carbohydrate Screening Results, Bacteria Code C [7] | Carbohydrate Screening Results, Bacteria Code H [2] | Carbohydrate Screening Results, Bacteria Code I [8] | Carbohydrate Screening Results, Bacteria Code B [3] | Carbohydrate Screening Results, Bacteria Code J [4] | Carbohydrate Screening Results, Bacteria Code F [9] | Carbohydrate Screening Results, Bacteria Code E [5]

CC(=O)N[C@H]1C(O)O[C@H](CO)[C@@H](O)[C@@H]1O (stereo partly drawn) [N-Acetyl-D-Glucosamine]
Y: Carbohydrate Screening Results, Bacteria Code B [3] | Carbohydrate Screening Results, Bacteria Code A [1] | Carbohydrate Screening Results, Bacteria Code E [5]

CC(=O)C(=O)O [Pyruvic Acid]
Y: Carbohydrate Screening Results, Bacteria Code I [8] | Carbohydrate Screening Results, Bacteria Code B [3] | Carbohydrate Screening Results, Bacteria Code J [4] | Carbohydrate Screening Results, Bacteria Code D [10] | Carbohydrate Screening Results, Bacteria Code F [9]

O=C(O)CCC(=O)O [Succinic Acid]
Y: Carbohydrate Screening Results, Bacteria Code A [1]

OC[C@H]1O[C@@](CO)(O[C@H]2O[C@H](CO)[C@@H](O)[C@H](O)[C@H]2O)[C@@H](O)[C@@H]1O [Sucrose]
Y: Carbohydrate Screening Results, Bacteria Code C [7] | Carbohydrate Screening Results, Bacteria Code B [3] | Carbohydrate Screening Results, Bacteria Code J [4] | Carbohydrate Screening Results, Bacteria Code A [1] | Carbohydrate Screening Results, Bacteria Code F [9] | Carbohydrate Screening Results, Bacteria Code E [5] | Carbohydrate Screening Results, Bacteria Code G [6]

Cc1cn([C@H]2C[C@H](O)[C@@H](CO)O2)c(=O)[nH]c1=O [Thymidine]
Y: Carbohydrate Screening Results, Bacteria Code B [3] | Carbohydrate Screening Results, Bacteria Code A [1] | Carbohydrate Screening Results, Bacteria Code E [5]

OC[C@H]1O[C@H](O)[C@H](O)[C@@H](O)[C@@H]1O [α-D-Glucose]
Y: Carbohydrate Screening Results, Bacteria Code C [7] | Carbohydrate Screening Results, Bacteria Code H [2] | Carbohydrate Screening Results, Bacteria Code I [8] | Carbohydrate Screening Results, Bacteria Code B [3] | Carbohydrate Screening Results, Bacteria Code J [4] | Carbohydrate Screening Results, Bacteria Code A [1] | Carbohydrate Screening Results, Bacteria Code F [9] | Carbohydrate Screening Results, Bacteria Code E [5] | Carbohydrate Screening Results, Bacteria Code G [6]

OC[C@H]1O[C@@H]2O[C@H]3[C@H](O)[C@@H](O)[C@@H](O[C@H]4[C@H](O)[C@@H](O)[C@@H](O[C@H]5[C@H](O)[C@@H](O)[C@@H](O[C@H]6[C@H](O)[C@@H](O)[C@@H](O[C@H]7[C@H](O)[C@@H](O)[C@@H](O[C@H]8[C@H](O)[C@@H](O)[C@@H](O[C@H]1[C@H](O)[C@H]2O)O[C@@H]8CO)O[C@@H]7CO)O[C@@H]6CO)O[C@@H]5CO)O[C@@H]4CO)O[C@@H]3CO [β-Cyclodextrin]
Y: Carbohydrate Screening Results, Bacteria Code I [8] | Carbohydrate Screening Results, Bacteria Code J [4] | Carbohydrate Screening Results, Bacteria Code D [10]

CO[C@@H]1O[C@H](CO)[C@@H](O)[C@H](O)[C@H]1O [β-Methyl-D-Glucoside]
Y: Carbohydrate Screening Results, Bacteria Code C [7] | Carbohydrate Screening Results, Bacteria Code H [2] | Carbohydrate Screening Results, Bacteria Code B [3] | Carbohydrate Screening Results, Bacteria Code E [5]

Maltotriose
Y: Carbohydrate Screening Results, Bacteria Code C [7] | Carbohydrate Screening Results, Bacteria Code H [2] | Carbohydrate Screening Results, Bacteria Code I [8] | Carbohydrate Screening Results, Bacteria Code B [3] | Carbohydrate Screening Results, Bacteria Code J [4] | Carbohydrate Screening Results, Bacteria Code A [1] | Carbohydrate Screening Results, Bacteria Code F [9] | Carbohydrate Screening Results, Bacteria Code E [5]
